The text below walks through data of patent US20080096894A1, “Anti-Bacterial Compounds” (ASTON UNIVERSITY, priority 2005, published 2008).

Structures are written as SMILES. In brackets after ≈: the same amount, converted by molar mass. Where two headings read alike, the source gives them in different places.

Data set [1] deals with vancomycin resistant enterococci. As to the kind of experiment: MIC, agar dilution, multipoint inoculator. The data set is classed as cell-based. To be noted: one value printed for the seven vancomycin resistant enterococci cultures of Table 5; read-out: MIC. Here is the method:
This activity was measured using a multipoint inoculator method as follows. The MIC for each compound was measured using an agar dilution method (Onda, H., et al., Int. J. Antimicrob. Agents. 18, 263 (2001)) (Mueller Hinton agar) by means of a multipoint inoculator delivering 10^4 colony forming units per spot.
It will be noted that compound 4PYcq was active against all strains of MRSA as well as all other Gram positive bacteria. For this reason it was further tested against some vancomycin resistant enterococci, using the multipoint inoculator method described above. It can be seen from Table 5 that the high level activity was retained.
In general terms: In agar dilution, organisms are placed on agar that contains the substance at set levels.

Data set [2] deals with S. aureus. As to the kind of experiment: MIC, agar dilution, multipoint inoculator. To be noted: Staphylococcus aureus, upper value of MIC reading, read-out: MIC. The data set is classed as cell-based, Staphylococcus aureus. An outline of the steps: (§1)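 Agar dilution on Mueller Hinton agar; a multipoint inoculator delivered 10^4 colony forming units per spot, and the MIC was taken for each compound.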

Data set [3] has as its system S. epidemisis. Nature of the data set: MIC, agar dilution, multipoint inoculator. Particulars: Staphylococcus epidermidis, upper value of MIC reading, read-out: MIC. The data set is classed as cell-based, Staphylococcus epidermidis. The gist of the method:
as §1

The test system of data set [4] is human mononuclear leucocytes (MNL, white blood cells). Nature of the data set: direct leucocyte toxicity, tryptan blue exclusion, 18 hours. The data set is classed as cell-based. How it is done: The in vitro assay used human mononuclear leucocytes (MNL, white blood cells) which were incubated with the test compound for 18 hours and cell death determined by tryptan blue exclusion (tryptan blue is a dye, which stains dead cells, whilst living cells extrude it).
The toxicity of 4PYcq and the aldehyde cq and pyridine-4-carboxamidrazone precursors were assessed using the same in vitro assay with human mononuclear leucocytes as that described above. The toxicity of related compounds, 2-hydroxybenzylidene-pyridine-2-carboxamidrazone 4PYbw and benzylidenepyridine-2-carboxamidrazone 4PYaa were also examined.

Consider `CC(C)(C)c1cc(/C=N/N=C(\N)c2ccncc2)c(O)c(C(C)(C)C)c1` [Compound 4PYcq], for which the MIC (in general, the smallest concentration in the dilution series that meets the test's criterion for growth inhibition) in data set [1] was 2 to 4 µg/mL (≈ 5.67 to 11.3 µM); in data set [2] (18 h, S. aureus Cowan 1), 4 µg/mL (≈ 11.3 µM); in data set [2] (NCTC6571, 18 h, S. aureus NCTC 6571), 4 µg/mL (≈ 11.3 µM); in data set [2] (NCTC10788, 18 h, S. aureus NCTC 10788) it was 4 µg/mL (≈ 11.3 µM); in data set [3] (18 h, S. epidemisis Isolate 1), 4 µg/mL (≈ 11.3 µM); in data set [3] (NCTC11047, 18 h, S. epidemisis NCTC 11047) it was 4 µg/mL (≈ 11.3 µM). Also, the “direct MNL toxicity (in words)” value in data set [4] was “very toxic to leucocytes”.
